Where two headings read alike, the source gives them in different places.
Experiments:
anti-nicotine antibodies = assay type: binding
[1] = five BSA digoxin immunised rabbits, cited from earlier work
[2] = liver, cited from earlier work
[3] = antibodies elicited by Nic-O-Su-Cholera Toxin B conjugates, relative to nicotine

CN1C(=O)C[C@@H](C(=O)O)[C@@H]1c1cccnc1 (relative stereo) [trans-4-cotininecarboxylic acid]
immunologic cross-reactivity (anti-nicotine antibodies; [3]): 0.19%

CN1C(=O)CC[C@H]1c1cccnc1 [cotinine]
immunologic cross-reactivity (anti-nicotine antibodies; [3]): 1.1%

C[C@H]1O[C@@H](O[C@H]2[C@@H](O)C[C@H](O[C@H]3[C@@H](O)C[C@H](O[C@H]4CC[C@@]5(C)[C@H](CC[C@@H]6[C@@H]5C[C@@H](O)[C@]5(C)[C@@H](C7=CC(=O)OC7)CC[C@]65O)C4)O[C@@H]3C)O[C@@H]2C)C[C@H](O)[C@@H]1O [digoxin]
mean serum concentration of digoxin ([1]; at one year): 85 nanogram/ml | mean serum concentration of digoxin ([1]; initially): 8200 nanogram/ml

CN1CCCC1c1cccnc1 (centres unmarked) [nicotine]
nicotine transformed to nicotine N'-oxide ([2]; flavin containing monooxygenase 3): 4-7% | nicotine glucuronidation, share of metabolized nicotine ([2]; uridine diphosphate-glucuronosyltransferase): 3-5%

O=C(O)c1cccnc1 [nicotinic acid]
immunologic cross-reactivity (anti-nicotine antibodies): 0.09%

c1cncc([C@@H]2CCCN2)c1 [nornicotine]
immunologic cross-reactivity (anti-nicotine antibodies; [3]): 4%
